{"source": "BindingDB's records for doi:10.1158/0008-5472.can-03-2847", "about": "(The University of Birmingham, 2004)", "key": {"[1]": {"biological_target": "T1, Aldo-keto reductase family 1 member C3 (Homo sapiens, UniProt P42330)", "T1 sequence (P42330 whole entry)": "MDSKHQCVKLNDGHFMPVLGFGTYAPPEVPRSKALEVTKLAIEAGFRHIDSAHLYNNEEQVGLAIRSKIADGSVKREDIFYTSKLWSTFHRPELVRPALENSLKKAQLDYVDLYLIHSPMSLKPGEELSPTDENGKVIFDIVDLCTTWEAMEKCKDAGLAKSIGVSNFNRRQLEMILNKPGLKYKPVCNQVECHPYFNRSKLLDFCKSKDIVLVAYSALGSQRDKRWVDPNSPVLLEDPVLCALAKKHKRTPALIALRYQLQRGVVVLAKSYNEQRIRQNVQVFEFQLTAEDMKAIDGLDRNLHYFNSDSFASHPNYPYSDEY", "test": "3alpha-Androstanediol Oxidation Inhibition Assay", "conditions": "pH 7; 30 °C", "protocol": "A fluorescence assay was used to determine the kinetic constants for the oxidation of 3alpha-androstanediol. The fluorescence emission of NADPH at 450 nm (5-nm slit width) with excitation at 340 nm (15-nm slit width) was monitored. A standard curve was constructed by monitoring fluorescence changes with incremental additions of NADPH. […] The type of inhibition and the inhibition constants were calculated using the Leonora program. All reactions were initiated by the addition of enzyme."}, "[2]": {"biological_target": "T1, Aldo-keto reductase family 1 member C3", "test": "Androsterone Reduction Inhibition Assay", "conditions": "pH 7; 30 °C", "protocol": "Enzyme activity was measured in the reductive direction against varying concentrations of androsterone. Initial velocities were measured by observing the rate of change of absorbance of pyridine nucleotide at 340 nm. Calculation of kcat and Km values used the Leonora program, yielding estimates of the kinetic constants. […] The type of inhibition and the inhibition constants were calculated using the Leonora program. All reactions were initiated by the addition of enzyme."}}, "data": [{"smiles": "O=C(O)c1ccccc1Nc1cccc(C(F)(F)F)c1", "note": "[2-{[3-(trifluoromethyl)phenyl]amino}benzoic acid]", "values": [{"measurement": "Ki", "setting": "[1]", "result": 140, "unit": "nM"}, {"measurement": "Ki", "setting": "[2]", "result": 3100, "unit": "nM"}]}]}
